Reference: the supplement of paper PMC8967900

Experiments:
Test in all cases: selective drug sensitivity score (sDSS, relative to normal bone marrow) (sDSS (score)); higher = more potent and effective on the cell line relative to normal bone marrow cells
Details in all cases: 72 h
JURKAT = tested on: JURKAT
HAL-01 = tested on: HAL-01
MN-60 = tested on: MN-60
KASUMI-9 = tested on: KASUMI-9
DND-41 = tested on: DND-41
MHH-CALL-3 = tested on: MHH-CALL-3
MOLT-16 = tested on: MOLT-16
380 = tested on: 380
RCH-ACV = tested on: RCH-ACV
RPMI-8402 = tested on: RPMI-8402
PEER = tested on: PEER
CCRF-CEM = tested on: CCRF-CEM
P30-OHKUBO = tested on: P30-OHKUBO
TMD5 = tested on: TMD5
COG-LL-355h = tested on: COG-LL-355h
REH = tested on: REH
SEM cells = tested on: SEM cells
KARPAS-45 = tested on: KARPAS-45
NALM-16 = tested on: NALM-16
KOPN-8 = tested on: KOPN-8
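Note: ALL cell lines in 384-well plates, five doses spanning 10,000-fold, each plate scaled between vehicle and 100 µmol/L benzalkonium chloride controls, sDSS an adapted area-under-curve metric.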

Compound	selective drug sensitivity score (JURKAT)	selective drug sensitivity score (HAL-01)	selective drug sensitivity score (MN-60)	selective drug sensitivity score (KASUMI-9)	selective drug sensitivity score (DND-41)	selective drug sensitivity score (MHH-CALL-3)	selective drug sensitivity score (MOLT-16)	selective drug sensitivity score 380	selective drug sensitivity score (RCH-ACV)	selective drug sensitivity score (RPMI-8402)	selective drug sensitivity score (PEER)	selective drug sensitivity score (CCRF-CEM)	selective drug sensitivity score (P30-OHKUBO)	selective drug sensitivity score (TMD5)	selective drug sensitivity score (COG-LL-355h)	selective drug sensitivity score (REH)	selective drug sensitivity score (SEM cells)	selective drug sensitivity score (KARPAS-45)	selective drug sensitivity score (NALM-16)	selective drug sensitivity score (KOPN-8)
CCN(CC)CCCC(C)Nc1c2ccc(Cl)cc2nc2ccc(OC)cc12 (stereo not given) [Mepacrine] (top concentration 50000 nM)	-7.7	-3.5	-5.7	-3.6	-5.1	-1.2	-0.8	-1.7	-4.5	-7.1	-5.9	-5	-0.3	-7.6	-3.3	-3.3	-0.1	-0.8	-7.9	0.1
COc1ccc(-c2ccc3ncc4c(c3c2)n(-c2ccc(N3CCNCC3)c(C(F)(F)F)c2)c(=O)n4C)cn1 [NVP-BGT226] (top concentration 1000 nM)	2.82	2.22	5.72	8.42	2.12	0.62	12.2	12.2	20.1	4.42	3.42	10.1	12.2	-5.58	6.42	8.22	6.82	3.42	-0.18	9.52
COc1nc(N)nc2c1ncn2[C@@H]1O[C@H](CO)[C@@H](O)[C@@H]1O [Nelarabine] (top concentration 10000 nM)	-0.12	-5.82	-10.2	1.98	8.98	-3.72	-7.22	-6.32	1.98	2.68	-5.52	4.18	-1.82	-10.2	-6.22	-6.32	-10.2	-9.92	-9.52	-7.82
Cc1cn(-c2cc(NC(=O)c3ccc(C)c(Nc4nccc(-c5cccnc5)n4)c3)cc(C(F)(F)F)c2)cn1 [Nilotinib] (top concentration 10000 nM)	1.1	3.3	0	4.6	2.8	0.5	2.1	6.1	8.3	1.8	18.1	2.1	2.5	21	0.6	2.5	4.9	4.2	0	9.7
NC(=O)c1cccc2cn(-c3ccc(C4CCCNC4)cc3)nc12 (stereo not given) [Niraparib] (top concentration 10000 nM)	0.38	3.18	-3.02	5.78	2.78	10.7	4.78	15.8	6.48	1.98	-1.02	4.68	5.98	-1.72	4.68	-0.02	2.98	-0.62	-2.82	16.1
COc1ccc(C[C@H](NC(=O)[C@H](C)NC(=O)CN2CCOCC2)C(=O)N[C@@H](Cc2ccccc2)C(=O)[C@@]2(C)CO2)cc1 [ONX-0914] (top concentration 10000 nM)	-4.4	-9.3	-2.9	-4.1	11.7	7.2	2.5	5.5	-4.4	-3.1	7.7	3.1	-1.8	0	8.7	-1.6	7.2	1.8	-2	1.5
CC(=O)c1cnc2ccc(-c3cc(Cl)c(O)c(Cl)c3)nc2c1N[C@H]1CC[C@H](CN(C)C)CC1 [OTS167] (top concentration 1000 nM)	-3.52	1.88	-1.82	3.58	-1.12	-1.02	2.78	9.38	8.28	0.28	1.78	2.48	0.98	-7.22	6.18	2.18	0.58	0.58	-4.52	5.68
COC(=O)C[C@](O)(CCCC(C)(C)O)C(=O)O[C@@H]1C(OC)=C[C@]23CCCN2CCc2cc4c(cc2[C@H]13)OCO4 [Omacetaxine] (top concentration 10000 nM)	-0.48	1.32	-3.88	1.12	-2.78	15.6	6.32	14.1	7.22	3.92	-1.88	3.02	3.12	-2.08	4.62	-1.08	4.22	3.72	-8.18	5.02
C1=N/C2=N/c3ccc(OCCN4CCCC4)c(c3)COC/C=C/COCc3cccc(c3)C(=C1)N2 [Pacritinib] (top concentration 10000 nM)	-8	-0.6	-9.6	-0.9	-4.7	-7.7	-5.6	-8.7	9.2	-5.7	-5.6	-6.1	1.2	-9.2	2.9	-3.2	1.5	-2.9	-8.2	-4.7
Cc1[nH]c2ccccc2c1CCNCc1ccc(/C=C/C(=O)NO)cc1 [Panobinostat] (top concentration 1000 nM)	1.04	-3.26	-1.46	11.7	5.04	15.6	9.04	12.1	14.1	4.14	4.34	5.34	6.64	2.74	4.84	0.44	3.94	10.7	2.94	18.2
Cc1ccc(Nc2nccc(N(C)c3ccc4c(C)n(C)nc4c3)n2)cc1S(N)(=O)=O [Pazopanib] (top concentration 10000 nM)	2.84	-0.16	-0.86	3.64	0.04	-1.26	1.94	-0.86	10.5	2.44	2.84	0.04	5.14	4.54	-1.26	4.14	4.54	1.74	-1.26	5.64
Nc1nc2[nH]cc(CCc3ccc(C(=O)N[C@@H](CCC(=O)O)C(=O)O)cc3)c2c(=O)[nH]1 [Pemetrexed] (top concentration 10000 nM)	15.6	20.8	11.6	18.6	18.6	13.5	28.4	22.6	28.8	24.8	15.5	23.6	26.4	-0.72	4.28	22.1	25.6	9.98	7.38	30.2
Cc1ccc(C(=O)Nc2ccc(CN3CCN(C)CC3)c(C(F)(F)F)c2)cc1C#Cc1cnc2cccnn12 [Ponatinib] (top concentration 1000 nM)	1.42	8.42	-0.58	5.42	1.42	10.7	6.62	9.52	14.8	2.72	18.6	1.82	9.02	19	5.52	2.62	19.4	5.02	-0.08	27.1
C[C@]12C=CC(=O)C=C1CC[C@@H]1[C@@H]2[C@@H](O)C[C@@]2(C)[C@H]1CC[C@]2(O)C(=O)CO [Prednisolone] (top concentration 10000 nM)	-2.1	-2.6	-3	2	29.4	26.7	3.5	23.8	26.8	-1.3	-3	6.4	15	4.8	20.6	-3	2.9	12.3	-3	22.6
CC(C)(C)c1cc(NC(=O)Nc2ccc(-c3cn4c(n3)sc3cc(OCCN5CCOCC5)ccc34)cc2)no1 [Quizartinib] (top concentration 1000 nM)	-1.52	3.18	-1.52	-0.02	5.38	-1.52	1.88	-1.52	2.08	1.18	-0.02	0.98	0.68	-1.52	-1.02	-1.52	20.7	3.68	-1.32	7.58
Nc1cc(F)ccc1NC(=O)/C=C/c1cnn(C/C=C/c2ccccc2)c1 [RGFP966] (top concentration 10000 nM)	11.2	12.7	3.04	13.5	6.84	12.3	18.2	12.9	14.8	10.5	10.2	13.9	14	8.54	4.84	17.1	18.7	14.6	6.24	11.5
CNC(=O)c1cc(Oc2ccc(NC(=O)Nc3ccc(Cl)c(C(F)(F)F)c3)c(F)c2)ccn1 [Regorafenib] (top concentration 10000 nM)	4.04	2.04	1.34	2.04	4.44	-1.56	3.34	8.54	10.9	3.44	7.64	3.74	4.04	2.74	6.74	4.44	10	3.44	1.54	10.9
CN(C)Cc1ccc(S(=O)(=O)n2ccc(/C=C/C(=O)NO)c2)cc1 [Resminostat] (top concentration 10000 nM)	1.34	1.84	2.34	10.2	1.74	11.7	4.54	7.44	12.2	7.24	8.24	3.74	7.94	0.34	6.04	2.04	8.64	8.34	0.24	10.1
